Experiments:
Assay in all cases: radiometric filter-binding kinase assay, Kinase HotSpot
Conditions in all cases: compound 0.5 µM; ATP 10 µM
SGK3 (human) = SGK3 (human) (UniProt Q96BR1)
PRKCH (human) = PRKCH (human) (UniProt P24723)
ERBB2 (human) = ERBB2 (human) (UniProt P04626)
NEK1 (human) = NEK1 (human) (UniProt Q96PY6)
TEC (human) = TEC (human) (UniProt P42680)
SLK (human) = SLK (human) (UniProt Q9H2G2)
FES (human) = FES (human) (UniProt P07332)
HIPK4 (human) = HIPK4 (human) (UniProt Q8NE63)
FRK (human) = FRK (human) (UniProt P42685)
FGFR3 (human) = FGFR3 (human) (UniProt P22607)
PRKCB1 (human) = PRKCB1 (human) (UniProt P05771)
CSNK2A2 (human) = CSNK2A2 (human) (UniProt P19784)
STK10 (human) = STK10 (human) (UniProt O94804)
EPHA5 (human) = EPHA5 (human) (UniProt P54756)
Sequence of EPHA5 (human) (P54756 whole entry, looked up): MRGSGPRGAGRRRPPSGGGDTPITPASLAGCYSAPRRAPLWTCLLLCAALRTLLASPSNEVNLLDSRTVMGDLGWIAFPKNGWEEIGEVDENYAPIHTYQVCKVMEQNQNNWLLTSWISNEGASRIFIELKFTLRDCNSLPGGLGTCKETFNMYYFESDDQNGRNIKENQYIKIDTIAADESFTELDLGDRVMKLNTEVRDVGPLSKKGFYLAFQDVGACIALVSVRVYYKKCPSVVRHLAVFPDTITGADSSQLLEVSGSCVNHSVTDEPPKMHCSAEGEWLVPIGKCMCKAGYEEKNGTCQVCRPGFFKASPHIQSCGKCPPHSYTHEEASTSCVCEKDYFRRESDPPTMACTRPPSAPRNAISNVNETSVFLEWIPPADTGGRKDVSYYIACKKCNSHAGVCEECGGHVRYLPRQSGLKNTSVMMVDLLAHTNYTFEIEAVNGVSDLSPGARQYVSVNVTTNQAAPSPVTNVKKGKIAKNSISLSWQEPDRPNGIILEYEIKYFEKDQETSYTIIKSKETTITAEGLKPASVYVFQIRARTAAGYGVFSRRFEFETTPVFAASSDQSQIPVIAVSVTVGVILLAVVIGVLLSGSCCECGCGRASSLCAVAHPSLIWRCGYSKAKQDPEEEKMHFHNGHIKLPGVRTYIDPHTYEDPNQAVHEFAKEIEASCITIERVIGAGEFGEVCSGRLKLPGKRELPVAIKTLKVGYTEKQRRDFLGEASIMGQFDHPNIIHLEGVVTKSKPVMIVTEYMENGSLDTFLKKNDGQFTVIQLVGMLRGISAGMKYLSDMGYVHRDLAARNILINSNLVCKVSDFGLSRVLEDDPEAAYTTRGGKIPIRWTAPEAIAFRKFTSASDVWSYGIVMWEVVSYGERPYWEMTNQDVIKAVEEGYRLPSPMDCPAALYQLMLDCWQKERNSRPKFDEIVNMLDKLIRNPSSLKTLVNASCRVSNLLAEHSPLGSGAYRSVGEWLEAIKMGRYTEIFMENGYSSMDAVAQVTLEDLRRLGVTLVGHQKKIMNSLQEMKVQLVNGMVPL

CSNK1D (human) = CSNK1D (human) (UniProt P48730)
STK4 (human) = STK4 (human) (UniProt Q13043)
BRSK2 (human) = BRSK2 (human) (UniProt Q8IWQ3)
GRK6 (human) = GRK6 (human) (UniProt P43250)
Sequence of GRK6 (human) (P43250 whole entry, looked up): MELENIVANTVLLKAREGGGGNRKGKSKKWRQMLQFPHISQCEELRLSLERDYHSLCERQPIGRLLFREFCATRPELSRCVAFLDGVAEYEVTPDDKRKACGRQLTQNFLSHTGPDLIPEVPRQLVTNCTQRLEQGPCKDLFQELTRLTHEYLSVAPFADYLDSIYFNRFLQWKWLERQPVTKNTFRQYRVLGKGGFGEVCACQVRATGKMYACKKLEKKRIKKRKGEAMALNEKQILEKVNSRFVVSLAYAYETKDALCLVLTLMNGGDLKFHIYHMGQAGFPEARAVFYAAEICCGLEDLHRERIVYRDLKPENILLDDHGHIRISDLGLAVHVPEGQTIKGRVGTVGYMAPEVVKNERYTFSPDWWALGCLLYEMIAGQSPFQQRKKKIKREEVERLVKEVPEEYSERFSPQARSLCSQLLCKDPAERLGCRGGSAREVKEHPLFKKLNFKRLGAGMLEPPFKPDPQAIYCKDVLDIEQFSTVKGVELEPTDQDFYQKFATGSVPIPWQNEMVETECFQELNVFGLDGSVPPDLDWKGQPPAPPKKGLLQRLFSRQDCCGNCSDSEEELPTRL

CLK2 (human) = CLK2 (human) (UniProt P49760)
MAP4K4 (human) = MAP4K4 (human) (UniProt O95819)
MAP3K10 (human) = MAP3K10 (human) (UniProt Q02779)
Sequence of MAP3K10 (human) (Q02779 whole entry, looked up): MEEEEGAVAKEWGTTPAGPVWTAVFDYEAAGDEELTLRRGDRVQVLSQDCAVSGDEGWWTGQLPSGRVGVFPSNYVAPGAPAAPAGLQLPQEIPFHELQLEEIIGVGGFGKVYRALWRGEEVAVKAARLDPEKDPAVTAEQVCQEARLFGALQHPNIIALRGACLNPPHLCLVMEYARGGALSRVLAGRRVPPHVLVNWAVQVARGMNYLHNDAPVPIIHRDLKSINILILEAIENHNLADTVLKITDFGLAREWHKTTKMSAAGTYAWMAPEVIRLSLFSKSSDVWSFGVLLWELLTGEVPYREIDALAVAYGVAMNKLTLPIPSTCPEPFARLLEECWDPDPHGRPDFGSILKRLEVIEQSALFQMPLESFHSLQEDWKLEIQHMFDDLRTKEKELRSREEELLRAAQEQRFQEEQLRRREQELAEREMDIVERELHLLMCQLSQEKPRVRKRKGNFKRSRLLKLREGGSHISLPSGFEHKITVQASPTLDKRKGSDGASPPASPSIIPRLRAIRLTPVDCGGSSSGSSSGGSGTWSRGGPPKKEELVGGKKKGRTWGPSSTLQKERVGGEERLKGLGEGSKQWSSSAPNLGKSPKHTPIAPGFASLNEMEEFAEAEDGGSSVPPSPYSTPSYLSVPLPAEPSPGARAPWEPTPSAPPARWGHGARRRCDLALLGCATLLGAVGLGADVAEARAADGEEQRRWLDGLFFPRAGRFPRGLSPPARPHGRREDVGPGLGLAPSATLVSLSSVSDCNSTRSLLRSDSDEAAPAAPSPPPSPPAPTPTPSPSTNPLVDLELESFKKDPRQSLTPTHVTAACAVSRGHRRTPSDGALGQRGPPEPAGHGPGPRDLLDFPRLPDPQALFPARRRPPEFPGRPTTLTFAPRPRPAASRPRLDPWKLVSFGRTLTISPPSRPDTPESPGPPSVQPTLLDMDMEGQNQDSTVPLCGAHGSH

JAK2 JH1 JH2 (human) = JAK2 JH1 JH2 (human) (UniProt O60674)
NTRK2 (human) = NTRK2 (human) (UniProt Q16620)
DYRK1B (human) = DYRK1B (human) (UniProt Q9Y463)
AURKA (human) = AURKA (human) (UniProt O14965)
Sequence of AURKA (human) (O14965 whole entry, looked up): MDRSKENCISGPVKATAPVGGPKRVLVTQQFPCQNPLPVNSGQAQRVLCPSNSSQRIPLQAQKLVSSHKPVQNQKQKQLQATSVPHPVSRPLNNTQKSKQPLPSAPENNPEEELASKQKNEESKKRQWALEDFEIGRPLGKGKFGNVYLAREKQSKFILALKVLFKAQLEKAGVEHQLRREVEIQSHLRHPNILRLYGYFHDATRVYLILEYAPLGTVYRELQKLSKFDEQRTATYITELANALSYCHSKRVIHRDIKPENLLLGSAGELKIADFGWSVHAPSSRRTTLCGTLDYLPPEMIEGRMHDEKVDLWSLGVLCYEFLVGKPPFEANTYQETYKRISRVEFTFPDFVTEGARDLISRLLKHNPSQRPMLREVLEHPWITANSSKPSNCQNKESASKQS

NEK4 (human) = NEK4 (human) (UniProt P51957)
Sequence of NEK4 (human) (P51957 whole entry, looked up): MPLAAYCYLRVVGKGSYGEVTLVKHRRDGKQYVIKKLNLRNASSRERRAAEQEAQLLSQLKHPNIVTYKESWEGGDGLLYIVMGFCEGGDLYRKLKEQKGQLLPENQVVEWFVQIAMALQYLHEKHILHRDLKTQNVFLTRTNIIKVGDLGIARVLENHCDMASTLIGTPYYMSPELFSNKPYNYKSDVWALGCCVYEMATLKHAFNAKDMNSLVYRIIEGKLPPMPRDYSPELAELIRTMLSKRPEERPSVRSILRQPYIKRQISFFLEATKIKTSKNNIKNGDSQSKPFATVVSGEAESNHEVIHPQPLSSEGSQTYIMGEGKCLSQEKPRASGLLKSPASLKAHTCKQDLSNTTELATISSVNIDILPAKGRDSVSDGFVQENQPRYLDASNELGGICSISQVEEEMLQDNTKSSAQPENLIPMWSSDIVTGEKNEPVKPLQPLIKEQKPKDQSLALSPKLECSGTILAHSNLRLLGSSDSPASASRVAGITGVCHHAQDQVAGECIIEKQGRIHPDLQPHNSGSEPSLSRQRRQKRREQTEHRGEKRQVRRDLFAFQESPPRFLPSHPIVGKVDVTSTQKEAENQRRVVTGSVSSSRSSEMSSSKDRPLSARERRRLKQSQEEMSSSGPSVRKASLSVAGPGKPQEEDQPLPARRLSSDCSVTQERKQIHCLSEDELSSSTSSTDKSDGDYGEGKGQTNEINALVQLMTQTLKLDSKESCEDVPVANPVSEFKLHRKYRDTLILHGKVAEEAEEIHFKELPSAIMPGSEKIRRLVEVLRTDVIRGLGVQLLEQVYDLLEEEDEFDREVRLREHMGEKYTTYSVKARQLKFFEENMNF

CHEK2 (human) = CHEK2 (human) (UniProt O96017)
GSK3B (human) = GSK3B (human) (UniProt P49841)
WEE1 (human) = WEE1 (human) (UniProt P30291)
DAPK3 (human) = DAPK3 (human) (UniProt O43293)
FGR (human) = FGR (human) (UniProt P09769)
BMX (human) = BMX (human) (UniProt P51813)
STK24 (human) = STK24 (human) (UniProt Q9Y6E0)
NEK11 (human) = NEK11 (human) (UniProt Q8NG66)
CDK6 CCND3 (human) = CDK6 CCND3 (human) (UniProt P30281+Q00534)
HIPK2 (human) = HIPK2 (human) (UniProt Q9H2X6)
MERTK (human) = MERTK (human) (UniProt Q12866)
DMPK (human) = DMPK (human) (UniProt Q09013)
PRKCI (human) = PRKCI (human) (UniProt P41743)
Sequence of PRKCI (human) (P41743 whole entry, looked up): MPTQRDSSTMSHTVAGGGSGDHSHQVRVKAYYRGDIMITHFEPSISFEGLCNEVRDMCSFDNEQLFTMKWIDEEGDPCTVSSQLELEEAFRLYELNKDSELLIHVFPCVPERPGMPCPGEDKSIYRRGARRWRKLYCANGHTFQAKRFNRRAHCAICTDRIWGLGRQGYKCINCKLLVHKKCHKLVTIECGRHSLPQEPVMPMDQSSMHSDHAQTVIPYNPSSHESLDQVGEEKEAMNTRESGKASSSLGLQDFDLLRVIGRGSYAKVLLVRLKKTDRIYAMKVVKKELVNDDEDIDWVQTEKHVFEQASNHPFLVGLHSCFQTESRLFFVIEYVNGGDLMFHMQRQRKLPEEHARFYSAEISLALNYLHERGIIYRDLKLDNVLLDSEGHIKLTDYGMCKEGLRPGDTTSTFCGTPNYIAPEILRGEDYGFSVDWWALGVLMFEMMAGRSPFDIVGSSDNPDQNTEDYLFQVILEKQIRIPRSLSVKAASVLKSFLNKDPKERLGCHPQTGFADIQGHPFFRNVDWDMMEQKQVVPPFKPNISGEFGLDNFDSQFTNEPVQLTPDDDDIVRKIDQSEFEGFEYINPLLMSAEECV

CSK (human) = CSK (human) (UniProt P41240)
Sequence of CSK (human) (P41240 whole entry, looked up): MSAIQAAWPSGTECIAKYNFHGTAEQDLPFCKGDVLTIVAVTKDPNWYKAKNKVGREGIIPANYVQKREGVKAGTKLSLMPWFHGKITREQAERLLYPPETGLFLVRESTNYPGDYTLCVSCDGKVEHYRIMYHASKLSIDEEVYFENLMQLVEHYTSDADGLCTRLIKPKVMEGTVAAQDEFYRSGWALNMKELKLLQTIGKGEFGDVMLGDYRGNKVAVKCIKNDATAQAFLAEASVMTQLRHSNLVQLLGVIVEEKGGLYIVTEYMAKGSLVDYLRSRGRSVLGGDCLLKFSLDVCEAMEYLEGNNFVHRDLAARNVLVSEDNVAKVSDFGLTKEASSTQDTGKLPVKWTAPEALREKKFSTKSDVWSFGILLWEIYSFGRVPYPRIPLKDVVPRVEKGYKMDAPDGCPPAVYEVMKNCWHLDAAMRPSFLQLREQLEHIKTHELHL

ROCK1 (human) = ROCK1 (human) (UniProt Q13464)
PRKCD (human) = PRKCD (human) (UniProt Q05655)

COc1cccc(-c2cc(=O)c3ccccc3o2)c1N
residual activity (SGK3 (human)): 101%
residual activity (PRKCH (human)): 87%
residual activity (ERBB2 (human)): 106%
residual activity (NEK1 (human)): 81.2%
residual activity (TEC (human)): 99.2%
residual activity (SLK (human)): 102%
residual activity (FES (human)): 94.3%
residual activity (HIPK4 (human)): 98.6%
residual activity (FRK (human)): 89.5%
residual activity (FGFR3 (human)): 91%
residual activity (PRKCB1 (human)): 98.5%
residual activity (CSNK2A2 (human)): 97.7%
residual activity (STK10 (human)): 90.4%
residual activity (EPHA5 (human)): 97.9%
residual activity (CSNK1D (human)): 99.1%
residual activity (STK4 (human)): 92.1%
residual activity (BRSK2 (human)): 98%
residual activity (GRK6 (human)): 90.7%
residual activity (CLK2 (human)): 103%
residual activity (MAP4K4 (human)): 97.2%
residual activity (MAP3K10 (human)): 90%
residual activity (JAK2 JH1 JH2 (human)): 104%
residual activity (NTRK2 (human)): 65.4%
residual activity (DYRK1B (human)): 88.1%
residual activity (AURKA (human)): 107%
residual activity (NEK4 (human)): 93.4%
residual activity (CHEK2 (human)): 98.8%
residual activity (GSK3B (human)): 95.7%
residual activity (WEE1 (human)): 83%
residual activity (DAPK3 (human)): 101%
residual activity (FGR (human)): 94.8%
residual activity (BMX (human)): 103%
residual activity (STK24 (human)): 108%
residual activity (NEK11 (human)): 92.9%
residual activity (CDK6 CCND3 (human)): 99.3%
residual activity (HIPK2 (human)): 116%
residual activity (MERTK (human)): 98%
residual activity (DMPK (human)): 97.1%
residual activity (PRKCI (human)): 97.3%
residual activity (CSK (human)): 83.7%
residual activity (ROCK1 (human)): 95.6%
residual activity (PRKCD (human)): 106%

N#C/C(=C1/Nc2ccccc2S1)c1ccnc(NCCc2cccnc2)n1
residual activity (SGK3 (human)): 107%
residual activity (PRKCH (human)): 98.7%
residual activity (ERBB2 (human)): 104%
residual activity (NEK1 (human)): 70%
residual activity (TEC (human)): 104%
residual activity (SLK (human)): 87.7%
residual activity (FES (human)): 92.8%
residual activity (HIPK4 (human)): 97.6%
residual activity (FRK (human)): 97.5%
residual activity (FGFR3 (human)): 98.2%
residual activity (PRKCB1 (human)): 90.8%
residual activity (CSNK2A2 (human)): 27.1%
residual activity (STK10 (human)): 86.3%
residual activity (EPHA5 (human)): 113%
residual activity (CSNK1D (human)): 65%
residual activity (STK4 (human)): 92.2%
residual activity (BRSK2 (human)): 88.1%
residual activity (GRK6 (human)): 87.6%
residual activity (CLK2 (human)): 48.5%
residual activity (MAP4K4 (human)): 87.1%
residual activity (MAP3K10 (human)): 79.6%
residual activity (JAK2 JH1 JH2 (human)): 106%
residual activity (NTRK2 (human)): 93.2%
residual activity (DYRK1B (human)): 53.2%
residual activity (AURKA (human)): 83.8%
residual activity (NEK4 (human)): 89.1%
residual activity (CHEK2 (human)): 93.9%
residual activity (GSK3B (human)): 6.2%
residual activity (WEE1 (human)): 88.5%
residual activity (DAPK3 (human)): 109%
residual activity (FGR (human)): 86.1%
residual activity (BMX (human)): 92.9%
residual activity (STK24 (human)): 95.6%
residual activity (NEK11 (human)): 118%
residual activity (CDK6 CCND3 (human)): 94.6%
residual activity (HIPK2 (human)): 95.8%
residual activity (MERTK (human)): 88.9%
residual activity (PRKCI (human)): 94.4%
residual activity (CSK (human)): 93.4%
residual activity (ROCK1 (human)): 93.2%
residual activity (PRKCD (human)): 92.2%

O=S(=O)(NCCNC/C=C/c1ccc(Br)cc1)c1cccc2cnccc12
residual activity (SGK3 (human)): 78.8%
residual activity (PRKCH (human)): 53.2%
residual activity (ERBB2 (human)): 119%
residual activity (NEK1 (human)): 94.4%
residual activity (TEC (human)): 102%
residual activity (SLK (human)): 93%
residual activity (FES (human)): 115%
residual activity (HIPK4 (human)): 97.7%
residual activity (FGFR3 (human)): 91.3%
residual activity (PRKCB1 (human)): 88.3%
residual activity (CSNK2A2 (human)): 86.6%
residual activity (STK10 (human)): 89.2%
residual activity (EPHA5 (human)): 96.9%
residual activity (STK4 (human)): 92.6%
residual activity (BRSK2 (human)): 92.4%
residual activity (GRK6 (human)): 93.5%
residual activity (CLK2 (human)): 106%
residual activity (MAP4K4 (human)): 43.8%
residual activity (MAP3K10 (human)): 85.5%
residual activity (JAK2 JH1 JH2 (human)): 109%
residual activity (NTRK2 (human)): 95.1%
residual activity (DYRK1B (human)): 95.3%
residual activity (AURKA (human)): 104%
residual activity (NEK4 (human)): 96.9%
residual activity (CHEK2 (human)): 82.8%
residual activity (GSK3B (human)): 83.5%
residual activity (WEE1 (human)): 84.6%
residual activity (DAPK3 (human)): 97.4%
residual activity (FGR (human)): 106%
residual activity (BMX (human)): 102%
residual activity (STK24 (human)): 72%
residual activity (NEK11 (human)): 92.7%
residual activity (CDK6 CCND3 (human)): 96.6%
residual activity (HIPK2 (human)): 99.2%
residual activity (MERTK (human)): 79.8%
residual activity (DMPK (human)): 96.6%
residual activity (PRKCI (human)): 88.4%
residual activity (CSK (human)): 95.6%
residual activity (ROCK1 (human)): 37.8%
residual activity (PRKCD (human)): 38.1%

— the kinase profiling compilation of Christmann-Franck et al. (2016)
